Experiment: recombinant UMI read abundance after kanamycin selection (control-corrected) (log10(CPM+1)); higher = more efficient recombination; extreme values may be limits of the assay; sequences stand for … in AGTGCAGAGAAAATCGGCCAGTTTTCTCTGCCTGCAGTCCGCATGCCGTGGGACCCCTTGGGTTCTAACCTGTTGCCTAGATTTATGCAGCGGACTGCCTTTCTCCCAAAGTGATAAACCGG…AGGTTGGTTTCACT; site = the 11-nt donor
In short: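 In Escherichia coli, a pool of donor and donor-binding-loop pairs, each with a 12-nt UMI, was tested for the IS621 bridge recombinase. Plating was on IPTG (0.07 mM) plus kanamycin, or without selection, in two replicates. Recombinant UMIs were amplified by PCR across the donor–target junction and sequenced, and counts were reported as log10(CPM+1) after averaging and control-derived scaling.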
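Further: IS621 bridge recombinase in Escherichia coli cells against a fixed T5 target plasmid.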

In order of rising “recombinant UMI read abundance (log10)” value:
1. CGGGAACCATGGACCGGTTTTCCCGGTAATCCGTATTTGGT (site CGGGAACCTAT)  0
2. CGGGAACCATGGACCGGTTTTCCCGGTAATCCGTATTTGAT (site TGGGAACCTAT)  0
3. TCCGGTCCATGGACCGGTTTTCCCGGTAATCCGTATTTGCA (site CCCGGTCCTTG)  0
4. CCGTTCTCATGGACCGGTTTTCCCGGTAATCCGTATTTGGA (site CCGTTCTCTTC)  0
5. CCTAATACATGGACCGGTTTTCCCGGTAATCCGTATTTGGC (site CCCAATACTGC)  0
6. GCTAAAACATGGACCGGTTTTCCCGGTAATCCGTATTTGCT (site GCCAAAACTAG)  0
7. TTTGGGGCATGGACCGGTTTTCCCGGTAATCCGTATTTGCT (site TTTGCGGCTAG)  0.00428
8. GTAGTTCCATGGACCGGTTTTCCCGGTAATCCGTATTTGGT (site GTGGTTCCTAC)  0.00522
9. CAATTCCCATGGACCGGTTTTCCCGGTAATCCGTATTTGCT (site CAATTCGCTAG)  0.00609
10. CTAGTATCATGGACCGGTTTTCCCGGTAATCCGTATTTGAC (site ATACTATCTGT)  0.00668
11. GGCTCAGCATGGACCGGTTTTCCCGGTAATCCGTATTTGGG (site TGCTCAGCTCC)  0.00932
12. CCTAAAGCATGGACCGGTTTTCCCGGTAATCCGTATTTGGA (site CCTAAAGCTTC)  0.0116
13. AGCTCAGCATGGACCGGTTTTCCCGGTAATCCGTATTTGGT (site AGCTCAGCTCC)  0.0126
14. GCGAAACCATGGACCGGTTTTCCCGGTAATCCGTATTTGGG (site GCGAAGCCTCC)  0.0136
15. TTTCCGGCATGGACCGGTTTTCCCGGTAATCCGTATTTGCT (site TTTCCGGCTAG)  0.016
16. AGGTTCCCATGGACCGGTTTTCCCGGTAATCCGTATTTGTA (site AGGTTCCCTCA)  0.0195
17. CCGTTAGCATGGACCGGTTTTCCCGGTAATCCGTATTTGTC (site CCGTTAGCTAA)  0.0291
18. GTTAGCACATGGACCGGTTTTCCCGGTAATCCGTATTTGGC (site GTTAGGACTGC)  0.0382
19. TAGCCTGCATGGACCGGTTTTCCCGGTAATCCGTATTTGAT (site TAGCCTGCTAT)  0.0647
20. GGCCACCCATGGACCGGTTTTCCCGGTAATCCGTATTTGCT (site GGCCACCCTAA)  0.0723
21. ACGTAGCCATGGACCGGTTTTCCCGGTAATCCGTATTTGCC (site ACGTAGCCTGG)  0.17
22. ACATGAACATGGACCGGTTTTCCCGGTAATCCGTATTTGTC (site ACACGAACTGA)  0.197
23. ATCCAAGCATGGACCGGTTTTCCCGGTAATCCGTATTTGCG (site ATCCAAGCTCG)  0.262
24. TACTTGCCATGGACCGGTTTTCCCGGTAATCCGTATTTGCT (site TACTTGTCTAG)  0.383
25. CCCTATCCATGGACCGGTTTTCCCGGTAATCCGTATTTGCC (site CCCTATCCTGG)  0.417
26. ACCTGGACATGGACCGGTTTTCCCGGTAATCCGTATTTGTG (site ACCTGGACTCA)  0.502
27. GCGCGCGCATGGACCGGTTTTCCCGGTAATCCGTATTTGGA (site GCGCGCGCTTC)  0.527
28. GTTCGAGCATGGACCGGTTTTCCCGGTAATCCGTATTTGTA (site GTTCGAGCTTG)  0.543
29. GTAGTTACATGGACCGGTTTTCCCGGTAATCCGTATTTGAC (site GTAGGTACTGT)  0.575
30. CAAGCAGCATGGACCGGTTTTCCCGGTAATCCGTATTTGCT (site CAAACAGCTAG)  0.972
31. AACGTATCATGGACCGGTTTTCCCGGTAATCCGTATTTGCA (site ACAGTATCTTG)  1.07
32. GCTTGTACATGGACCGGTTTTCCCGGTAATCCGTATTTGGT (site GCTTGTACTAC)  1.08
33. CTCGTCTCATGGACCGGTTTTCCCGGTAATCCGTATTTGAC (site CTCGTCTCTGT)  1.54
34. TAGGAAGCATGGACCGGTTTTCCCGGTAATCCGTATTTGCG (site TAGGAAACTCG)  2.32
35. AGAAATGCATGGACCGGTTTTCCCGGTAATCCGTATTTGAG (site AGAAATGCTCT)  2.88
36. CTGAACTCATGGACCGGTTTTCCCGGTAATCCGTATTTGCG (site CTGAACTCTCG)  2.99
37. GAGCACTCATGGACCGGTTTTCCCGGTAATCCGTATTTGCG (site GAGCACTCTCG)  3.08

Reference: the supplement of paper PMC11208160
